Measured values from patent US20040214799A1, “Cancerous metastasis inhibitors containing carbacyclic phosphatidic acid derivatives” (priority 2001, published 2004).
Values joined by “and” are separate entries in the source; they are usually repeats but may differ in a detail not shown here. Equal entries are not always repeated.

Test system: Mouse malignant melanoma B16-F0
Assay: B16 melanoma hematogenous lung metastasis model; on Metastatic nodules, Abdominal cavity Adipose tissue: key: −: Absent; +: Present; on Metastatic nodules, Abdominal cavity Adrenal gland: key: −: Absent; +: Present; on Metastatic nodules, Abdominal cavity Diaphragm: key: −: Absent; +: Present; on Metastatic nodules, Abdominal cavity Kidney: key: −: Absent; +: Present; on Metastatic nodules, Abdominal cavity Ovary: key: −: Absent; +: Present; on Metastatic nodules, Abdominal cavity Spleen: key: −: Absent; +: Present; on Metastatic nodules, Thoracic cavity: key: −: Absent; +: Present; on Metastatic nodules, Tissue around glandual clitoris: key: −: Absent; +: Present
Format: in vivo
Details: for invasion of lymphocytes into metastatic lesions observed in cases: animals with metastatic lesions; for Metastatic nodules, Abdominal cavity Adipose tissue / Metastatic nodules, Abdominal cavity Adrenal gland / Metastatic nodules, Abdominal cavity Diaphragm / Metastatic nodules, Abdominal cavity Kidney / Metastatic nodules, Abdominal cavity Ovary / Metastatic nodules, Abdominal cavity Spleen / Metastatic nodules, Thoracic cavity / Metastatic nodules, Tissue around glandual clitoris: autopsy day 14, individual animals; for Number of lung tumor nodules, Range (mininum-maximum) / Number of mice having lung tumor nodules: day 14, N 6; for Number of lung tumor nodules: day 14, mean ± S.D.; for Number of lung tumor nodules / Number of mice having metastatic lesions: N 6; for Number of mice having metastatic lesions / Findings: Invasion of lymphocytes into melanoma metastatic lesion: lung histopathology; for Findings: Invasion of lymphocytes into melanoma metastatic lesion: individual animals; for Number of metastatic lesions per section, Large size: major diameter 0.65 mm ≦ and <1.3 mm; for Number of metastatic lesions per section, Large size / Number of metastatic lesions per section, Small size / Number of metastatic lesions per section, Total: mean ± S.D.; for Number of metastatic lesions per section, Small size: major diameter <0.65 mm, left lobe and posterior lobe
Protocol: cPA-19 and cPA-20 were used as test substances. 0.1 w/v % BSA/PBS which was prepared by dissolving Albumin, Bovine [essentially Fatty Acid Free] (BSA, Lot No. 89H7604, Sigma chemical company) in Ca^2+ and Mg^2+ free PBS (pH 7.2), was used as a medium After preparation, the solution was sterilized by filtration using a filter (0.22 μm, Millipore). Preparation was performed when used. cPA-5 was used as a positive control substance.
A medium was added in a volume required for a test substance or a positive control substance. Dissolution was performed by ultrasonication, thereby preparing a 0.16 mg/mL solution. The 0.16 mg/mL solution containing a test substance was diluted with a medium, thereby preparing 0.08 and 0.02 mg/mL solutions. All mixtures were prepared when used.
Mice were purchased from CHARLES RIVER JAPAN. INC. The line employed herein was C57BL/6NCrj (sexuality: female). The number of animals kept in stock was 60, and the age of these animals when kept in stock was 4 weeks. […] The environmental conditions for the test system were as follows:
Mouse malignant melanoma B16-F0 was used as a tumor cell. The cell was purchased from Dainippon Pharmaceutical Co., Ltd.
Dulbecco's Modified Eagle's Media containing 10% feral bovine serum and kanamycin were used for culture. […] A medium was added to stop the action of trypsin while pipetting, thereby preparing a cell suspension. The suspension was diluted by one-tenth with a medium for culturing, followed by subculturing until it reached a volume sufficient for grafting.
A cell suspension was prepared by the same technique as the subculture method. Specifically, the cells were washed with a Ca^2+ and Mg^2+ free phosphate buffer [PBS(−)], and then harvested. The harvested cells were suspended in a 10 mL of PBS(−), thereby preparing a cell suspension. The number of cells in the cell suspension was measured to obtain the total cell number. 50 μL of the cell suspension, 100 μL of 0.4% trypan blue liquid and 100 μL of PBS(−) were mixed, and then viable count was measured. The survival rate of the cells was calculated from the viable count and total cell number.
Based on the body weight on the day of the administration of the test substance, mice were grouped into 8 test groups according to the stratified continuous randomization method as shown in Table 2 below.
The mixture was administered via the caudal vein. The number of grafted cells was 5×10^5 cells/body. The dose of the test substance was 0.001, 0.004 or 0.008 mg/body, and the dose of the positive control substance was 0.008 mg/body.
On day 14 after the administration of the test substance, blood was collected from the posterior portion of the abdominal vena cava under isoflurane anesthesia. After the mice were sacrificed by blood-letting, the presence or absence of intrapleural and intraperitoneal metastatic nodules was confirmed. Lungs were extracted, and then fixed with a 10% neutral buffered formalin solution. The number of nodules resulting from lung metastasis was measured under a stereoscopic microscope (magnification: 10 times).
After the measurement of the number of nodules resulting from lung metastasis, samples were paraffin-embedded, and then thin sections were prepared. Hematoxylin eosinic-stained samples were prepared from these sections. The number of metastatic lesions in the certain portions of the left lobe and the posterior lobe was measured, and then the lesions were sorted by size. On the basis of the diameter (0.65 mm) of an object lens (×40), metastatic lesions with major diameters of less than 0.65 mm were classified as having a small size, and those with major diameters of between 0.65 mm or more and less than 1.30 mm were classified as having a large size. Furthermore, the degree of invasion of lymphocytes into metastatic lesions was confirmed qualitatively.
The representative value of each test group was denoted as mean±standard deviation (mean±S.D.). Differences in mean values were examined as follows.

[1] = 0.001 mg/body i.v., autopsy, 6 mice
[2] = 0.004 mg/body i.v., autopsy, 6 mice
[3] = 0.008 mg/body i.v., autopsy, 6 mice

carba-ΔPal-cPA [cPA-20]
invasion of lymphocytes into metastatic lesions observed in cases (0.001 mg/body i.v.): 1 out of 4
Metastatic nodules, Abdominal cavity Adipose tissue (0.001 mg/body i.v.): −
Metastatic nodules, Abdominal cavity Adrenal gland (0.001 mg/body i.v.): −
Metastatic nodules, Abdominal cavity Diaphragm (0.001 mg/body i.v.): − (5×) and +
Metastatic nodules, Abdominal cavity Kidney (0.001 mg/body i.v.): −
Metastatic nodules, Abdominal cavity Ovary (0.001 mg/body i.v.): − (5×) and +
Metastatic nodules, Abdominal cavity Spleen (0.001 mg/body i.v.): − (5×) and +
Metastatic nodules, Thoracic cavity (0.001 mg/body i.v.): − (5×) and +
Metastatic nodules, Tissue around glandual clitoris (0.001 mg/body i.v.): − (5×) and +
cases with metastatic nodules in the diaphragm [1]: 1 case
cases with metastatic nodules in the ovary [1]: 1 cases
cases with metastatic nodules in the spleen [1]: 1 case
cases with metastatic nodules in the thoracic cavity [1]: 1 case
cases with metastatic nodules in tissue around the glandual clitoris [1]: 1 case
Number of lung tumor nodules, Range (mininum-maximum) (0.001 mg/body i.v.): 17-112
Number of mice having lung tumor nodules (0.001 mg/body i.v.): 6
Number of lung tumor nodules (0.001 mg/body i.v.): 58 ± 40
Number of mice having metastatic lesions (0.001 mg/body i.v.): 4
Findings: Invasion of lymphocytes into melanoma metastatic lesion (0.001 mg/body i.v.): − (3×) and ++
Number of metastatic lesions per section, Large size (0.001 mg/body i.v.): 1.2 ± 1.3
Number of metastatic lesions per section, Small size (0.001 mg/body i.v.): 3.2 ± 3.5
Number of metastatic lesions per section, Total (0.001 mg/body i.v.): 4.3 ± 4.6
number of metastatic nodules of B16-F0 in the lungs versus medium group (in words) (0.004 mg/body i.v.): significant decrease in the number of metastatic nodules
invasion of lymphocytes into metastatic lesions observed in cases (0.004 mg/body i.v.): no invasions were observed in 1 case
Metastatic nodules, Abdominal cavity Adipose tissue (0.004 mg/body i.v.): −
Metastatic nodules, Abdominal cavity Adrenal gland (0.004 mg/body i.v.): −
Metastatic nodules, Abdominal cavity Diaphragm (0.004 mg/body i.v.): −
Metastatic nodules, Abdominal cavity Kidney (0.004 mg/body i.v.): −
Metastatic nodules, Abdominal cavity Ovary (0.004 mg/body i.v.): −
Metastatic nodules, Abdominal cavity Spleen (0.004 mg/body i.v.): − (5×) and +
Metastatic nodules, Thoracic cavity (0.004 mg/body i.v.): −
Metastatic nodules, Tissue around glandual clitoris (0.004 mg/body i.v.): −
cases with metastatic nodules in the spleen [2]: 1 case
metastatic nodules in the thoracic cavity [2]: no metastatic nodules were observed
Number of lung tumor nodules, Range (mininum-maximum) (0.004 mg/body i.v.): 0-4
Number of mice having lung tumor nodules (0.004 mg/body i.v.): 2 &
Number of lung tumor nodules (0.004 mg/body i.v.): 1 ± 2
Number of mice having metastatic lesions (0.004 mg/body i.v.): 1 &&
Findings: Invasion of lymphocytes into melanoma metastatic lesion (0.004 mg/body i.v.): −
Number of metastatic lesions per section, Large size (0.004 mg/body i.v.): 0 ± 0!!
Number of metastatic lesions per section, Small size (0.004 mg/body i.v.): 0.2 ± 0.4
Number of metastatic lesions per section, Total (0.004 mg/body i.v.): 0.2 ± 0.4!!
metastasis / number of metastatic nodules in the lungs versus medium group (in words) (0.008 mg/body i.v.): almost completely suppressed metastasis
Metastatic nodules, Abdominal cavity Adipose tissue (0.008 mg/body i.v.): −
Metastatic nodules, Abdominal cavity Adrenal gland (0.008 mg/body i.v.): −
Metastatic nodules, Abdominal cavity Diaphragm (0.008 mg/body i.v.): −
Metastatic nodules, Abdominal cavity Kidney (0.008 mg/body i.v.): −
Metastatic nodules, Abdominal cavity Ovary (0.008 mg/body i.v.): −
Metastatic nodules, Abdominal cavity Spleen (0.008 mg/body i.v.): − (5×) and +
Metastatic nodules, Thoracic cavity (0.008 mg/body i.v.): −
Metastatic nodules, Tissue around glandual clitoris (0.008 mg/body i.v.): −
cases with metastatic nodules in the spleen [3]: 1 case
metastatic nodules in the thoracic cavity [3]: no metastatic nodules were observed
Number of lung tumor nodules, Range (mininum-maximum) (0.008 mg/body i.v.): 0-1
Number of mice having lung tumor nodules (0.008 mg/body i.v.): 1 &&
Number of lung tumor nodules (0.008 mg/body i.v.): 0 ± 0
Number of mice having metastatic lesions (0.008 mg/body i.v.): 0 &&
Number of metastatic lesions per section, Large size (0.008 mg/body i.v.): 0 ± 0!!
Number of metastatic lesions per section, Small size (0.008 mg/body i.v.): 0 ± 0!
Number of metastatic lesions per section, Total (0.008 mg/body i.v.): 0 ± 0!!
number of mice having intrapleural or intraperitoneal metastatic nodules, dose dependence (in words) (0.001, 0.004 and 0.008 mg/body i.v.): decreased as the dose increased
action of suppressing the lung metastasis of B16-F0 compared with cPA-5 (0.004 and 0.008 mg/body i.v.): stronger than that of cPA-5

CCCCCCCCCCCCCCCC(=O)OC[C@@H]1COP(=O)(O)O1 [cPA-5, Pal-cPA, reference compound]
action of decreasing the number of metastatic lesions (in words) (0.008 mg/body i.v.): no action of decreasing the number of metastatic lesions was observed
metastasis / number of metastatic nodules in the lungs versus medium group (in words) (0.008 mg/body i.v.): a significant decrease was observed in the number of metastatic nodules
invasion of lymphocytes into metastatic lesions observed in cases (0.008 mg/body i.v.): 2 out of 5
Metastatic nodules, Abdominal cavity Adipose tissue (0.008 mg/body i.v.): −
Metastatic nodules, Abdominal cavity Adrenal gland (0.008 mg/body i.v.): −
Metastatic nodules, Abdominal cavity Diaphragm (0.008 mg/body i.v.): −
Metastatic nodules, Abdominal cavity Kidney (0.008 mg/body i.v.): −
Metastatic nodules, Abdominal cavity Ovary (0.008 mg/body i.v.): −
Metastatic nodules, Abdominal cavity Spleen (0.008 mg/body i.v.): + (3×) and − (3×)
Metastatic nodules, Thoracic cavity (0.008 mg/body i.v.): −
Metastatic nodules, Tissue around glandual clitoris (0.008 mg/body i.v.): −
cases with metastatic nodules in the spleen [3]: 3 case
metastatic nodules in the thoracic cavity [3]: no metastatic nodules were observed
Number of lung tumor nodules, Range (mininum-maximum) (0.008 mg/body i.v.): 5-38
Number of mice having lung tumor nodules (0.008 mg/body i.v.): 6
Number of lung tumor nodules (0.008 mg/body i.v.): 21 ± 13$
Number of mice having metastatic lesions (0.008 mg/body i.v.): 5
Findings: Invasion of lymphocytes into melanoma metastatic lesion (0.008 mg/body i.v.): − (3×) and ++ and +
Number of metastatic lesions per section, Large size (0.008 mg/body i.v.): 0.8 ± 0.8
Number of metastatic lesions per section, Small size (0.008 mg/body i.v.): 1.2 ± 0.8
Number of metastatic lesions per section, Total (0.008 mg/body i.v.): 2.0 ± 1.3
